This is an account of results in patent publication US10258629B2, “Liposomal drug encapsulation” (priority 2014, dated 2019).

One data set concerns U87 cells. Nature of the data set: In vivo anti-tumor activity against very large U87 flank tumors (FIG. 9). To be noted: treatment over two weeks.
For data set [1] the following is noted: 0.8 mg/Kg injected as free staurosporine; 'would very likely be'; cited from earlier work.
A short description of data set [2]: Reverse pH gradient encapsulation efficiency of staurosporine in liposomes.
Procedure: The dried lipid film was hydrated with a buffer containing ammonium phosphate, ammonium sulfate, sodium phosphate, or sodium sulfate (300 mM, 7.4) and vortexed for 1 minute to remove any adhering lipid film. Sonication in a bath sonicator (ULTRAsonik 28X) for 1 minute at room temperature produced multilamellar vesicles (MLV). ME-Vs were then sonicated with a Ti-probe (Branson 450 sonifier) for 2 minutes to produce small unilamellar vesicles (SUV), indicated by the formation of a translucent solution. Extrusion through a 100 nm pore size polycarbonate filter (Whatman) was the final stage of a stepwise series of extrusions to reduce SUV size.
The prepared liposomes with internal buffer at pH 3 or 7.4 were passed through a Sephadex G-50 column equilibrated with HEPES buffered saline (FIBS; 20 mM HEPES, 150 mM NaCl, pH 7.4) to exchange the external buffer.
Data set [3] in a line: Acute toxicity of free staurosporine. To be noted: 5 mg/Kg free staurosporine.

Consider `CN[C@@H]1C[C@H]2O[C@@](C)([C@@H]1OC)n1c3ccccc3c3c4c(c5c6ccccc6n2c5c31)C(=O)NC4` [free staurosporine, (9S, 10R, 11R, 13R)-2,3,10,11,12,13-Hexahydro-10-methoxy-9-methyl-11-(methylamino)-9,13-epoxy-1H,9H-diindolo[1,2,3-gh:3′,2′r-lm]pyrrolo[3,4-j][1,7]benzodiazonin-1-one], for which, in the data set with U87 cells, the Body weight result was “body weight did decline”. For the same compound, the Tumor growth result in the data set with U87 cells (tumors 180-200 mm^3 at start, relative to PBS, p<0.004 for liposomal) is “no demonstrable effect”. In data set [1], the “Fraction cleared after only one circulatory pass” value is 99%. In data set [2] (internal buffer pH 7.4 versus pH 3, external buffer constant at pH 3), the “Increase of encapsulation when a pH gradient existed” value amounted to 14 fold. The Encapsulation rate entry in data set [2] (internal pH 5, external pH 7.4) is “very low encapsulation rates”. The “Liposomal loading capacity, peak value” in data set [2] (lipid to drug ratio 11.11 (mole/mole)) stood at 70%. In data set [3], the Acute lethality entry is recorded as “acutely lethal”.
